Measurements published in patent EP3856749B1, “WATER-SOLUBLE, NON-AGGREGATED SILICON PHTALGCYANINE COMPOUND HAVING IN VITRO ANTICANCER EFFECT AGAINST CANCER TYPES OF LUNG, LIVER, BREST AND MELANOMA” (Karadeniz Teknik Universitesi, priority 2018, dated 2020).

Legend:
[1] = test system: cervical cancer cell line (HeLa); details: cited from earlier work
[2] = test system: lung (A549) cancer cell lines; test: Cytotoxicity test (MTT), A549; assay type: cell-based, human; details: A549, 48 hours
Source text: (§1) Cytotoxic effects of test substances are testes by means of using human breast (BT-20), melanoma (SK-Mel 128), prostate (DU-145), liver (SNU-398) and lung (A549) cancer cell lines. Toxic effects of test substances on the healthy normal cells are studied on human fibroblast cells (HFC).
(§2) Cell suspension prepared from alpha-MEM having 10% FBS (Fetal Bovine Serum), fungizone and penicillin/streptomycin is distributed as 5×10^3 of cell in each well in the cell culture containers comprising 96 wells for the test. […] Cells are kept in a humid environment at 5% of CO2 at 37°C for 48 hours in the presence of the test substance, of which final densities are of 200-0.09 µg/mL. 10 µL from the MTT solution (3-[4,5-dimethyltioazol-2,5-diphenyltetrazolium bromide) prepared at a density of 5 mg/mL is added to each well so as to determine the cell generation rate at the end of incubation period. After culture containers are kept in the humid environment at 5% of CO2 at 37°C for 2 hours, the content is emptied and dimethyl sulphoxide (DMSO) is added in the value of 100 µL/well on cells so as to solubilize intracellular formazan crystals. After incubation for 30 minutes, the color intensity is measured in the wave length of 570/620 by means of ELISA Microplate Reader (Tecan, Sunrise).

[3] = test system: breast (BT-20) cancer cell lines; test: Cytotoxicity test (MTT), BT-20; assay type: cell-based, human; details: BT20, 48 hours
Source text: as §1, §2

[4] = test system: liver (SNU-398) cancer cell lines; test: Cytotoxicity test (MTT), SNU-398; assay type: cell-based, human; details: SNU-398, 48 hours
Source text: as §1, §2

[5] = test system: prostate (DU-145) cancer cell lines; test: Cytotoxicity test (MTT), DU-145; assay type: cell-based, human; details: DU-145, 48 hours
Source text: as §1, §2

[6] = test system: melanoma (SK-Mel 128) cancer cell lines; test: Cytotoxicity test (MTT), SK-Mel 128; assay type: cell-based, human; details: SK-MEL 128, 48 hours
Source text: as §1, §2

CT-DNA [7] = test: UV-Vis absorption titration; assay type: binding; details: in the presence of CT-DNA; 5 mM Tris-HCl/50 mM NaCl (pH 7.2)
Description: Stock solutions of compounds are obtained by means of being solved in water and stored in a room temperature in darkness. Stock solutions of CT-DNA are prepared in 5 mM Tris-HCl buffer of 7.2 pH with 50 mM NaCl and stored at 4 °C for three days. At the end of this period, absorbance rates of 260 and 280 nm are calculated so as to determine rate of DNA impurity. […] Concentration of DNA is measured and calculated at 260 nm by using molar excitation coefficient of (ε) 6600 M^-1cm^-1. All studies with the interaction between compounds and CT-DNA are carried out in 5 mM Tris-HCl/50 mM NaCl (pH 7.2) by keeping stock solutions prepared in water at the stable concentration and changing CT-DNA concentration. While carrying out this process, absorbance of CT-DNA is eliminated by adding CT-DNA in an equal amount on the blind solution.
Variations in the absorbance intensity are presented in percent. %H = [(A1−A2)/(A1)] × 100 [formula]
A1: Maximum absorbance of the compound; A2: Absorbance of the compound subsequent to addition of DNA.

CT-DNA [8] = test: Competitive EB binding experiment; details: EB (50 µM), CT-DNA (50 µM), pH 7.2
Description: It is observed in competitive EB binding studies of compounds how the wave length and absorbance, in which EB (50 µM) whose concentration is kept stable presents the maximum absorbance, vary with addition of CT-DNA (50 µM) and then with simultaneous addition of DNA and complex. This study is carried out in the buffer of 5 mM Tris-HCl/50 mM NaCl (pH 7.2).

[9] = test system: supercoiled pBR322 plasmid DNA; test: Hydrolytic nuclease activity (agarose gel electrophoresis); assay type: biochemical; details: 7a 6.25-50 µM; 3a 12.5-100 µM; without light
Source text: (§3) Cleavage activities of supercoiled pBR322 plasmid DNA of the compounds are observed by means of using agarose-gel electrophoresis. When the supercoiled is exposed to pBR322 plasmid DNA electrophoresis, it is observed that the supercoiled form (Form I) migrates in the swiftest manner. In case of a cut occurred on a single chain, the supercoiled form creates a nicked form (Form II) moving in the slowest manner. In case both chains are cut, the linear form (Form III) migrating between Form I and Form II.
Total volume of reaction mixture contained 50 mM Tris-HCl (pH 7.0), supercoiled pBR322 plasmid DNA (250 ng), and different concentrations of compound. While the well content is loaded to 0.8 percent of agarose gel (comprising 0.25 µg/mL EB), gel loading dye also added and loaded to the gel. After addition of running buffer, it is exposed to electrophoresis by applying a current of 100 volt for 90 minutes.

[10] = test system: supercoiled pBR322 plasmid DNA; test: Nuclease activity under irradiation (photonuclease); assay type: biochemical; details: for nuclease activity under irradiation: light for 15 minutes, 700 nm filter, increasing concentrations
Source text: as §3
It is used General Electric quartz lamb of 300 watts and optical filter of 700 nm for compounds illustrated as Formula I and II to light in the proper wave length so as to observe that the supercoiled pBR322 plasmid DNA is cleavage by the compounds and so as to evaluate usability potentials of the compounds in the photo-dynamic therapy. In this study, total volume of reaction mixture contained 50 mM Tris-HCl (pH 7.0), super-coiled pBR322 plasmid DNA (250 ng), and increasing concentrations of compounds. Afterwards, well contents are exposed to light for 15 minutes. At the end of this period, after mixtures are incubated in darkness at 37 °C for an hour, reactions are stopped by means of above-mentioned methods and cut products are observed on the agarose gel under UV light.

pBR322 plasmid DNA [11] = test: Oxidative nuclease activity; assay type: biochemical; details: with oxidative agent (H2O2, AA, ME) under irradiation
Description: Auxiliary reagents are added to H2O2, AA, ME medium so as to examine oxidative cleavage activities of the compounds.
In this study, pBR322 plasmid DNA is formed of buffer solution (50 mM Tris-HCl (pH 7)), auxiliary reagents and increasing concentrations of compounds, such that well contents are of 10 µL. The oxidative nuclease activity studies were performed under light irradiation. At the end of this period, after mixtures are incubated in darkness at 37 °C for an hour, reaction is stopped by means of above-mentioned methods and cleavage products are observed on the agarose gel under UV light.
Subsequent to the determination of hydrolytic nuclease activities of the compounds 7a and 3a, cleavage reactions are carried out by way of adding hydrogen peroxide (H2O2) (0.4 M), ascorbic acid (AA) (2.5 mM) and mercaptoethanol (ME) (0.4 M) so as to examine its oxidative cleavage capabilities with/without irradiation and the related results are given in Figure 4.

topoisomerase I enzyme = target: T1, topoisomerase I enzyme (Homo sapiens, UniProt P11387); test: Topoisomerase I inhibition (relaxation method); assay type: biochemical; details: 1 U Topo I, pBR322 plasmid DNA; 7a 12.5-37.5 µM; 3a 12.5-25 µM
T1 sequence (P11387 1-765): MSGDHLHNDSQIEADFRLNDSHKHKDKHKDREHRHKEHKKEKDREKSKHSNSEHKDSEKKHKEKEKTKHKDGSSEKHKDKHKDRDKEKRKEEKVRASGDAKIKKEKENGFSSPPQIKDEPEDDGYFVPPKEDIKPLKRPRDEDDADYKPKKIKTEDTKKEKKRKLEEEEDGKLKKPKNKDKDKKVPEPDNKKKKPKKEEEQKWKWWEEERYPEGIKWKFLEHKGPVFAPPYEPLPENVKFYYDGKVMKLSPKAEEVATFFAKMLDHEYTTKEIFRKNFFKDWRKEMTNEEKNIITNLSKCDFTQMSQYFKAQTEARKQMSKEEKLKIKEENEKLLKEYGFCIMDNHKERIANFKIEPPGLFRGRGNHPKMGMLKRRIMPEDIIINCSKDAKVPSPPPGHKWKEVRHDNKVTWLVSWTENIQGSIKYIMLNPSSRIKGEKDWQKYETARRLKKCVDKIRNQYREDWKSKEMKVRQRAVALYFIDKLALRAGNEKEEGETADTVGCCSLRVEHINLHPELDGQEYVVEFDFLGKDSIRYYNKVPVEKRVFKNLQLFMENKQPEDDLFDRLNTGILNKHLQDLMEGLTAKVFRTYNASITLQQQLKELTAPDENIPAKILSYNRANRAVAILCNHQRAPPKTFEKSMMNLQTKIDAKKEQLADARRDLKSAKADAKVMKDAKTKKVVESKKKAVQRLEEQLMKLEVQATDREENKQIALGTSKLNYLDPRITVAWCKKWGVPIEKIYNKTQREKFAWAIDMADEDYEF
Description: After incubation process, samples are loaded to 0.8 % of agarose gel, exposed to electrophoresis in the running buffer by applying 40 volt of current for 3 hours and forms obtained are observed on the agarose gel under UV light.

topoisomerase II enzyme = test: Topoisomerase II inhibition (relaxation method); assay type: biochemical; details: 1 U Topo II, pBR322 plasmid DNA; 7a 12.5-37.5 µM; doxorubicin as standard
Description: After incubation process, samples are loaded to 0.8 % of agarose gel, exposed to electrophoresis in the running buffer by applying 40 volts of current for 3 hours and forms obtained are observed on the agarose gel under UV light.

CT-DNA [12] = test: Determination of DNA melting temperature; assay type: binding; details: absorbance at 260 nm; CT-DNA alone 75.57 °C
Description: Studies pertaining to determination of DNA melting temperature is carried out by means of Cary 100 Bio UV-Visible Spectrophotometer with Varian Cary Temperature Controller unit.
(§4) The absorbance is measured at 260 nm at every 0.5 °C in the range of 60-90 °C by increasing temperature of the cell comprising the basin by 1 °C every minute by means of employing thermal melting program. Values Tm are automatically calculated by the device from t(°C)-Absorbance curve of CT-DNA drawn in the presence and absence of the compound depending on its absorbance in 260 nm.
as §4, with “program of DNA melting temperature of the compound 3a.” for “program.”, “3a” for “the compound”, “nm. While the melting temperature of CT-DNA is at 75.57 °C, the melting temperature of the compounds CT-DNA + 3a is at 81.82 °C. An increase at the melting temperatures strengthens the potential that the compounds becomes an intercalative agents.” for “nm.”

pBR322 plasmid DNA [13] = test: Determination of reactive oxygen types in photonuclease activity; assay type: biochemical; details: 3a (50 µM), stimulation with light
Description: Inhibition tests are performed in the presence of standard radical scavengers so as to determine active oxygen types effective on its cleavage in the presence of light on pBR322 plasmid DNA of complexes. For that purpose, it used ethanol (EtOH), methanol (MeOH) and dimethyl sulphoxide (DMSO) as hydroxyl radical scavenger; sodium azide and L-histidine as singlet oxygen scavenger; SOD as superoxide radical scavenger, EDTA as chelating agent and catalase as hydrogen peroxide adsorbent. It is also observed whether or not results obtained by using different types scavenging the same type of radicals support each other. Different reaction mixtures are formed by means of adding pBR322 plasmid DNA and complex in the efficient concentration and any one of above mentioned standard radical scavengers in variable concentrations into 50 mM Tris-HCl buffer. Subsequent to incubation of different reaction mixture formed at 37°C for an hour, it comprises the process of examining and monitoring these products. […]

| Molecule | cell survival (photocytotoxicity) [1] | CC50 [2] | CC50 [3] | CC50 [4] | CC50 [5] | CC50 [6] | hypochromism (CT-DNA [7]) | red-shift (CT-DNA [7]) | competitive EB binding (CT-DNA [8]) | hydrolytic nuclease activity [9] | nuclease activity under irradiation [10] | oxidative cleavage activity (pBR322 plasmid DNA [11]) | topoisomerase I inhibition effect (topoisomerase I enzyme) | topoisomerase II inhibition effect (topoisomerase II enzyme) | melting temperature of CT-DNA + compound (CT-DNA [12]) | nuclease activity under irradiation at 100 µM ([10]; in the presence of light, concentration of 100 µM) | effect of singlet oxygen scavengers NaN3 and L-Histidine on cleavage (pBR322 plasmid DNA [13]) |
| --- | --- | --- | --- | --- | --- | --- | --- | --- | --- | --- | --- | --- | --- | --- | --- | --- | --- |
| c1ccc(C(O[Si]2(OC(c3ccccc3)(c3ccccc3)c3ccncc3)n3c4c5ccccc5c3N=C3N=C(N=c5c6ccccc6c(n52)=NC2=NC(=N4)c4ccccc42)c2ccccc23)(c2ccccc2)c2ccncc2)cc1 [compound 3, axially di-(alpha,alpha-diphenyl-4-pyridylmethoxy) silicon(IV) phthalocyanine] | 17% |  |  |  |  |  |  |  |  |  |  |  |  |  |  |  |  |
| bis(3,5-bis{3-[3-(diethylmethylamino)phenoxy]propoxy}phenyl)methoxy)phthalocyaninato silicon (IV) Iodide [7a] |  | 1180 nM | 1440 nM | 490 nM | 2.99 µM | 1130 nM | 43.64% | 6 nm | compete with EB so as to bind with CT-DNA | observed for the compound 7a depending on the concentration | exhibits the nuclease activity depending on the concentration | significantly high cleavage activity | supercoiled form rate increases | Effective results are observed compared to doxorubicin |  |  |  |
| bis(3,5-bis{3-[3-trimethylamino)phenoxy]propoxy}phenyl)methoxy)phthalocyaninato silicon (IV) Iodide [3a] |  | 2240 nM | 3960 nM | 860 nM | 4.63 µM | 1470 nM | 25.40% | 6 nm | compete with EB so as to bind with CT-DNA | observed for the compound 3a depending on the concentration | exhibits the nuclease activity depending on the concentration |  | supercoiled form rate increases |  | 81.82 °C | destroys pBR322 plasmid DNA completely | prevent the cleavage |
